For the series, the target named is APOL1. Particulars: ASO.

The values below come from the OligoGym collection.

After the bases stand the sugars from the 5' end (letter, count) and the backbone: PS all phosphorothioate, else s phosphorothioate and o phosphodiester by linkage. Methylation of C is not given here. e = 2'-O-(2-methoxyethyl) (MOE); k = constrained ethyl (cEt); d = 2'-deoxy (DNA)

“TTTGTAAGTGCAACCA (sugars kekddddeekkddddd, PS)”: the target mRNA inhibition by setting is: (A431, 0.0156 µM) 21%; (A431, 0.0625 µM) 46%; (A431, 0.25 µM) 84%; (A431, 1 µM) 96%; (A431, 2 µM) 99%.

Turning to TTCATGATCATTTGTC (sugars k4 d9 k3, PS), the target mRNA inhibition by setting is: (A431, 0.0625 µM) 47%; (A431, 0.25 µM) 68%; (A431, 1 µM) 81%.

With “TGTTATATTTGATCCT (sugars kkdddddkekeddddd, PS)”, the target mRNA inhibition is, setting by setting: (A431, 0.0156 µM) 33%; (A431, 0.04 µM) 50%; (A431, 0.0625 µM) 59%; (A431, 0.25 µM) 81%; (A431, 1 µM) 92%; (A431, 2 µM) 92%.

In turn, “CGCAATGCTGACTTGG (sugars kkddddkekekkdddd, PS)” showed a target mRNA inhibition (A431, 2 µM) of 60%.

Turning to “AGCTTTAAACTCAGGT (sugars kkdddddkekeddddd, PS)”, the target mRNA inhibition (A431, 0.0156 µM) is 31%; the target mRNA inhibition (A431, 0.0625 µM) was 53%; the target mRNA inhibition (A431, 0.25 µM) stood at 79%; the target mRNA inhibition (A431, 1 µM) worked out at 92%; the target mRNA inhibition (A431, 2 µM) is 94%.

In turn, “TTGTAAGTGCAACCAA (sugars kkddddkekekkdddd, PS)” had a target mRNA inhibition (A431, 2 µM) of 54%.

On to “TATTTCTTGATGTGGT (sugars kkddddkekekddddd, PS)”, for which the target mRNA inhibition runs as follows: (A431, 0.0156 µM) 44%; (A431, 0.0625 µM) 77%; (A431, 0.25 µM) 92%; (A431, 1 µM) 96%; (A431, 2 µM) 97%.

The sequence “GGTTCAAAAGCAGCAT (sugars kkkddddkekeddddd, PS)” had a target mRNA inhibition (A431, 2 µM) of 70%.

“CCGTCAATATATTCTT (sugars k2 d4 e3 k2 d5, PS)”: the target mRNA inhibition reads like this: (A431, 0.0156 µM) 28%; (A431, 0.04 µM) 50%; (A431, 0.0625 µM) 61%; (A431, 0.25 µM) 86%; (A431, 1 µM) 96%; (A431, 2 µM) 98%.

In turn, “ACGCAATGCTGACTTG (sugars kkkddddkekekdddd, PS)” gave a target mRNA inhibition (A431, 2 µM) of 71%.

On to TTCAGCTAAGACCAGT (sugars k4 d9 k3, PS), for which the target mRNA inhibition is, setting by setting: (A431, 0.0625 µM) 35%; (A431, 0.25 µM) 71%; (A431, 1 µM) 88%.

As for “TATATTTGATCCTCAA (sugars kddddkekekeddddd, PS)”, the target mRNA inhibition (A431, 2 µM) came out at 75%.

Take “ACACATCATTGGGTTA (sugars kkddddekekeddddd, PS)”: for the setting “A431, 2 µM”, the target mRNA inhibition is 64%.

With “AAGCTTTAAACTCAGG (sugars kkkddddkekekdddd, PS)”, the target mRNA inhibition (A431, 2 µM) came out at 16%.

Sequence “AAGTATTGCCAGCTAA (sugars kekddddeekkddddd, PS)” returned a target mRNA inhibition (A431, 2 µM) of 88%.

Sequence “TCTATTAGAGGGCTAG (sugars kkddddkekekddddd, PS)” had a target mRNA inhibition (A431, 2 µM) of 52%.

Take TTGGGTCAAAAGCGAT (sugars k4 d9 k3, PS): the target mRNA inhibition is, setting by setting: (A431, 0.0625 µM) 56%; (A431, 0.25 µM) 86%; (A431, 1 µM) 93%.

As to “TATTTCTTGATGTGGT (sugars k3 d4 k3 e1 d5, PS)”, the target mRNA inhibition came out at 45% (A431, 0.0156 µM); 78% (A431, 0.0625 µM); 95% (A431, 0.25 µM); 98% (A431, 1 µM); 99% (A431, 2 µM).

With “GAACGCAATGCTGACT (sugars k2 d4 e3 k2 d5, PS)”, the target mRNA inhibition is 20% (A431, 0.0156 µM); 42% (A431, 0.0625 µM); 77% (A431, 0.25 µM); 92% (A431, 1 µM); 95% (A431, 2 µM).

Take “TTCAGAATTTCCACTA (sugars kkddddkekekkdddd, PS)”: the target mRNA inhibition (A431, 2 µM) is 58%.

Turning to “TTCAGAATTTCCACTA (sugars kdddddkekekddddd, PS)”, the target mRNA inhibition (A431, 2 µM) is 87%.

On to “AGCTTTAAACTCAGGT (sugars kkddddkdkdkddddd, PS)”, for which the target mRNA inhibition (A431, 2 µM) worked out at 86%.

In turn, “CGCAATGCTGACTTGG (sugars kkdddddkekeddddd, PS)” yielded a target mRNA inhibition (A431, 0.0156 µM) of 11%; a target mRNA inhibition (A431, 0.0625 µM) of 44%; a target mRNA inhibition (A431, 0.25 µM) of 80%; a target mRNA inhibition (A431, 1 µM) of 93%; a target mRNA inhibition (A431, 2 µM) of 96%.

“TTATATTTGATCCTCA (sugars kddddkekekeddddd, PS)” had a target mRNA inhibition (A431, 2 µM) of 39%.

As for “TCCGTCAATATATTCT (sugars kkkddddkekekdddd, PS)”, the target mRNA inhibition by setting is: (A431, 0.0156 µM) 30%; (A431, 0.04 µM) 50%; (A431, 0.0625 µM) 57%; (A431, 0.25 µM) 84%; (A431, 1 µM) 94%; (A431, 2 µM) 95%.

Where the note is “A431, 2 µM”, “ATTCTATTAGAGGGCT (sugars kkddddkekekddddd, PS)” registered a target mRNA inhibition of 46%.
